Source: patent US7863287B2, “Compositions of non-steroidal anti-inflammatory drugs, decongestants and anti-histamines” (Wyeth LLC, priority 2002, dated 2011)
Counter-ions that a name gives are not always drawn.

System: seasonal allergic rhinitis
Test: Multicenter, placebo-controlled, double-blind, randomized multiple-dose efficacy trial in seasonal allergic rhinitis
Assay type: in vivo, human
From the text: The study was a multicenter, outpatient, multiple-dose, placebo controlled, double-blind, double-dummy, parallel-group, randomized trial.
The study enrolled 1070 appropriately selected patients who were at least 12 years of age and included both males and females. […] Qualified subjects were required to undergo a 3-30 day run-in phase to establish that the patients had sufficiently severe allergy symptoms, during which time they reflectively assessed the severity of the following symptoms in the morning (upon waking) and in the evening (prior to bedtime): nasal congestion, sneezing, rhinorrhea, itchy nose/throat/palate; itchy/watery/red eyes and headache/facial pain/pressure/discomfort. The severity of each symptom was assessed using a 4-point categorical scale where 0=none (no symptom present), 1=mild (minimal awareness of symptom, symptom easily tolerated), 2=moderate (symptom present and bothersome, but tolerable) and 3=severe (symptom hard to tolerate; may cause interference with daily activities/sleeping). […] Patients were also assessed for allergy associated pain and were asked if they were in pain. […]

## CN(C)CCC(c1ccc(Cl)cc1)c1ccccn1 (stereo not shown) [chlorpheniramine, chlorpheniramine maleate]
  relief of histamine-mediated symptoms, result in words: more effective than the placebo
